Tests used:
Interstitial collagenase = molecular target: T1, Interstitial collagenase (Homo sapiens, UniProt P03956); assay: Inhibition of MMP1
T1 sequence (P03956 whole entry): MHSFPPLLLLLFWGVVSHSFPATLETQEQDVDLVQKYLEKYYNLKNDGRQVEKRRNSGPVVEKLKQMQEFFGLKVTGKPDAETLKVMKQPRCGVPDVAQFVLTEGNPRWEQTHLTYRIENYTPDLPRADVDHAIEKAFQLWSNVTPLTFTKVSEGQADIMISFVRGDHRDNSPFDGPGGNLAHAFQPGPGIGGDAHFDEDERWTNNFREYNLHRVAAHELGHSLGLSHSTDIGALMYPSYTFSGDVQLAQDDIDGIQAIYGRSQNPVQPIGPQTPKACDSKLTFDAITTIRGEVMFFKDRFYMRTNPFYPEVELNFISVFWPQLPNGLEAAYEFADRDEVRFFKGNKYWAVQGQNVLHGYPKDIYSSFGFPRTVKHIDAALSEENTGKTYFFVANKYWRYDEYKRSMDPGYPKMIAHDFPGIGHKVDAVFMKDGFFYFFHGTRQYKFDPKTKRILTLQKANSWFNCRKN

[1] = molecular target: T2, Disintegrin and metalloproteinase domain-containing protein 17 (Homo sapiens, UniProt P78536); assay: Inhibition of LPS-stimulated TNF production in THP cells at 3 uM; assay type: functional, cell-based
[2] = molecular target: T2, Disintegrin and metalloproteinase domain-containing protein 17; assay: Inhibition of LPS-stimulated TNF production in THP cells at 1 uM; assay type: functional, cell-based
Collagenase 3 = Collagenase 3 (Homo sapiens, UniProt P45452); assay: Inhibition of MMP13
Mus musculus [3] = assay: Inhibition of LPS-stimulated TNFalpha production in mouse at 50 mg/kg, po; assay type: functional
[4] = molecular target: T2, Disintegrin and metalloproteinase domain-containing protein 17; assay: Inhibition of TACE
[5] = Bioavailability in mouse at 10 mg/kg; assay type: ADME, organism-based; settings: in vivo
[6] = Bioavailability in dog at 10 mg/kg; assay type: ADME, organism-based, Canis lupus familiaris; settings: in vivo
[7] = Bioavailability in rat at 10 mg/kg; assay type: ADME, organism-based; settings: in vivo
Mus musculus [8] = species on record: Mus musculus; assay: Inhibition of LPS-stimulated TNFalpha production in mouse; assay type: functional
[9] = Permeability across Caco-2 cell membrane; assay type: ADME, cell-based; settings: human

T2 sequence (P78536 whole entry, the tested form may be a part): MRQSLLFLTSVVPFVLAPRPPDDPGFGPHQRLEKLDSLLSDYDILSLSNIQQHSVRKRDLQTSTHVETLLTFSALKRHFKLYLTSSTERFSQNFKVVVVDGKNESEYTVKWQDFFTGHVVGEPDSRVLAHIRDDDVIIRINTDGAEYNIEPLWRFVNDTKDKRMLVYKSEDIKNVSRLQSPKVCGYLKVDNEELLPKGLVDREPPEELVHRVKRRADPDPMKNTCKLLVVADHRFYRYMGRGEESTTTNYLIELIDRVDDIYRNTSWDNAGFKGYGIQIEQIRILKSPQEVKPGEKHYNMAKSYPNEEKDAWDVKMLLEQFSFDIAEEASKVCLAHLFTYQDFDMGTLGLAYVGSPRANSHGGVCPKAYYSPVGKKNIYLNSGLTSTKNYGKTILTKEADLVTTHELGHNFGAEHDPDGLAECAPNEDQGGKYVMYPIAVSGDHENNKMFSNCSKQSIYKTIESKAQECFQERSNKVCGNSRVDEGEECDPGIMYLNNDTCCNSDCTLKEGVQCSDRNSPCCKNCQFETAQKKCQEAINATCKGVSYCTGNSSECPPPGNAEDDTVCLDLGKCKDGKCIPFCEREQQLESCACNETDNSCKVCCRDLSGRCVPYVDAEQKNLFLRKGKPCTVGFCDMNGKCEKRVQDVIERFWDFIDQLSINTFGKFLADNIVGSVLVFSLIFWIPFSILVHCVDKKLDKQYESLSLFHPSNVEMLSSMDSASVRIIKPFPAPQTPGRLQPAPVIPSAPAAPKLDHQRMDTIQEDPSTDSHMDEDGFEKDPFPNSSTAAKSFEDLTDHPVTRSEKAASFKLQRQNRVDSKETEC

SMILES	IC50 (Interstitial collagenase)	inhibition [1]	inhibition [2]	IC50 (Collagenase 3)	inhibition in vivo at 50 mg/kg (Mus musculus [3])	IC50 [4]	bioavailability [5]	bioavailability [6]	bioavailability [7]	IC50 [2]	ED50 (Mus musculus [8])	Papp [9]
C#CCOc1ccc(S(=O)(=O)N2CCSC(C)(C)[C@@H]2C(=O)NO)cc1	0.001 µM	91%	76%	0.001 µM								
CC#CCOc1ccc(S(=O)(=O)N2C[C@H](CCO)SC(C)(C)[C@@H]2C(=O)NO)cc1	0.021 µM	90%	74%	0.023 µM	≥ 95%	0.015 µM						
CCCCOc1ccc(S(=O)(=O)N2CCSC(C)(C)[C@@H]2C(=O)NO)cc1	0.007 µM	38%	11%	0.009 µM		0.042 µM						
CC1(C)SCCN(S(=O)(=O)c2ccc(OCC#CCCO)cc2)[C@H]1C(=O)NO	0.035 µM	57%	25%	0.014 µM		0.062 µM						
CC#CCOc1ccc(S(=O)(=O)N2C[C@H](CC(=O)O)SC(C)(C)[C@@H]2C(=O)NO)cc1		89%	73%	0.007 µM								
C#CCCOc1ccc(S(=O)(=O)N2CCSC(C)(C)[C@@H]2C(=O)NO)cc1	0.002 µM	64%	36%	0.001 µM		0.032 µM						
CC1(C)SCCN(S(=O)(=O)c2ccc(OCC#CCN)cc2)[C@H]1C(=O)NO	0.097 µM	40%	10%	0.008 µM								
CC1(C)SCCN(S(=O)(=O)c2ccc(OCC#CCCCCO)cc2)[C@H]1C(=O)NO		77%	52%									
CC#CCOc1ccc(S(=O)(=O)N2CCSC(C)(C)[C@@H]2C(=O)NO)cc1		94%	87%				71%	0%	5%			
CC(C)(C)OC(=O)NCC#CCOc1ccc(S(=O)(=O)N2CCSC(C)(C)[C@@H]2C(=O)NO)cc1	0.026 µM	79%	53%	0.004 µM		0.074 µM						
C/C=C/COc1ccc(S(=O)(=O)N2CCSC(C)(C)[C@@H]2C(=O)NO)cc1	0.007 µM	80%	50%	0.002 µM		0.035 µM						
CC#CCOc1ccc(S(=O)(=O)N2C[C@H](CCN(CC)CC)SC(C)(C)[C@@H]2C(=O)NO)cc1	0.033 µM	87%	67%	0.048 µM	≥ 95%	0.143 µM						
CC1(C)SCCN(S(=O)(=O)c2ccc(OCC#CCCCO)cc2)[C@H]1C(=O)NO	0.159 µM	51%	19%	0.086 µM		0.04 µM						
CC#CCOc1ccc(S(=O)(=O)N2C[C@H](CN)SC(C)(C)[C@@H]2C(=O)NO)cc1		94%	78%		≥ 95%							
CC(C)(C)OC(=O)NCCC#CCOc1ccc(S(=O)(=O)N2CCSC(C)(C)[C@@H]2C(=O)NO)cc1	0.3 µM	37%	14%	0.007 µM		0.112 µM						
CC#CCOc1ccc(S(=O)(=O)N2C[C@H](CC(N)=O)SC(C)(C)[C@@H]2C(=O)NO)cc1		91%	76%									
CC(C)(C)OC(=O)NCCCCC#CCOc1ccc(S(=O)(=O)N2CCSC(C)(C)[C@@H]2C(=O)NO)cc1		70%	40%	0.004 µM								
CC#CCOc1ccc(S(=O)(=O)N2C[C@H](CNS(C)(=O)=O)SC(C)(C)[C@@H]2C(=O)NO)cc1	0.019 µM	91%	81%	0.014 µM		0.011 µM						
C#CCCCOc1ccc(S(=O)(=O)N2CCSC(C)(C)[C@@H]2C(=O)NO)cc1	0.011 µM	38%	16%	0.008 µM		0.04 µM						
CC1(C)SCCN(S(=O)(=O)c2ccc(OCC#CCCCN)cc2)[C@H]1C(=O)NO		22%	0%	0.009 µM								
CC1(C)SCCN(S(=O)(=O)c2ccc(OCC#CCCN)cc2)[C@H]1C(=O)NO	1.05 µM	4%	0%	0.027 µM		0.138 µM						
CC1(C)SCCN(S(=O)(=O)c2ccc(OCC#CCCCCN)cc2)[C@H]1C(=O)NO		37%	13%	0.007 µM								
CC1(C)SCCN(S(=O)(=O)c2ccc(OCC#CCO)cc2)[C@H]1C(=O)NO		95%	89%	0.008 µM	≥ 95%		24%	36%	8%	0.14 µM	5 mg/kg	22 nm/s
CCCCC#CCOc1ccc(S(=O)(=O)N2CCSC(C)(C)[C@@H]2C(=O)NO)cc1	0.029 µM	82%	48%	0.007 µM		0.023 µM						
CC(C)(C)OC(=O)NCCCC#CCOc1ccc(S(=O)(=O)N2CCSC(C)(C)[C@@H]2C(=O)NO)cc1		27%	5%	0.002 µM								
C#CC#CCOc1ccc(S(=O)(=O)N2CCSC(C)(C)[C@@H]2C(=O)NO)cc1	0.006 µM	88%	62%									

Reference: ChEMBL document CHEMBL1139018, “Acetylenic TACE inhibitors. Part 3: Thiomorpholine sulfonamide hydroxamates” (Bioorg Med Chem Lett, 2006)
